The target in this assay is T1, human somatostatin receptor subtype 5 (Homo sapiens, UniProt P35346).
T1 construct: expressed in transfected cells
The assay can be described thus: cAMP assay for SST5R (inhibition of cAMP in CHO-K1 cells). The format is cell-based. The conditions noted are these: inhibition of cAMP via human SST5 receptor, read-out: SST5 potency. A digest of the protocol: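 CHO-K1 cells stably expressing human SSTR5 were treated 20 min at 37 °C with compounds plus 1.6 μM NKH477 in HBSS, 0.5 mM HEPES pH 7.4, 0.1% BSA, 0.2 mM IBMX. Lysate cAMP measured by HTRF against a standard curve; EC50 from cAMP-versus-concentration plots.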
In general terms: Cyclic AMP is a second messenger, typically raised through Gs and lowered through Gi signalling.

Each structure is given as a SMILES string. Read-outs that look alike come from different tables or passages of the source.

T1 sequence (P35346 whole entry): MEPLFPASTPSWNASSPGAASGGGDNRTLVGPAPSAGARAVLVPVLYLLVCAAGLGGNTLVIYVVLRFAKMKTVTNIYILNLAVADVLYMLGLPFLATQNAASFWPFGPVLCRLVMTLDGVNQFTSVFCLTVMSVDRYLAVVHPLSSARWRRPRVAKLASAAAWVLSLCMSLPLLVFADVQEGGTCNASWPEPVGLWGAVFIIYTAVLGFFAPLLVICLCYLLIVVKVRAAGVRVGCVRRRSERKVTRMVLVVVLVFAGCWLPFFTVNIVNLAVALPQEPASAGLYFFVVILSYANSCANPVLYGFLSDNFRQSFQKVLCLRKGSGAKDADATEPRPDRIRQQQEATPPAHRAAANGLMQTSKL

As to `Cc1cccc2[nH]c(-c3cncc(C(=O)Nc4ccccc4)c3N3CC[C@](C)(N)C3)nc12` [2-6, 4-[(3S)-3-amino-3-methylpyrrolidin-1-yl]-5-(4-methyl-1H-1,3-benzodiazol-2-yl)-N-phenylpyridine-3-carboxamide], the EC50 (Table A) was less than 10 nM.

For the molecule `C[C@]1(N)CCN(c2c(C(=O)N[C@H]3C[C@H](F)C3)cncc2-c2cc(F)cc(F)c2)C1` [1-55], where the note is “Table A”, the EC50 was less than 10 nM. On the same count and under the same terms, the result for `N#Cc1ncc(C(=O)NC23CC(C2)C3)c(N2C[C@H](N)[C@@H](F)C2)c1-c1cc(F)cc(F)c1` (single isomer, unassigned) [1-102] reads 10 to 100 nM; that for `Cc1cc(C)cc(-c2cncc(C(=O)NC3CCCC(F)(F)C3)c2N2CC[C@](C)(N)C2)c1` (stereo partly drawn) [1-14, 4-[(3S)-3-amino-3-methylpyrrolidin-1-yl]-N-(3,3-difluorocyclohexyl)-5-(3,5-dimethylphenyl)pyridine-3-carboxamide], less than 10 nM; that for `Cc1cccc2[nH]c(-c3cncc(C(=O)N(C)C4CCCC4)c3N3CC[C@](C)(N)C3)nc12` [2-16, 4-[(3S)-3-amino-3-methylpyrrolidin-1-yl]-N-cyclopentyl-N-methyl-5-(4-methyl-1H-1,3-benzodiazol-2-yl)pyridine-3-carboxamide], less than 10 nM.

For the molecule `C[C@]1(N)CCN(c2c(C(=O)NC3CC3)cncc2-c2cc(F)cc(F)c2)C1` [1-23, 4-[(3S)-3-amino-3-methylpyrrolidin-1-yl]-N-cyclopropyl-5-(3,5-difluorophenyl)pyridine-3-carboxamide], the EC50 (Table A) lay within 10 to 100 nM. As for `Cc1cccc2[nH]c(-c3cncc(C(=O)NCC4CCC4)c3N3CC[C@](C)(N)C3)nc12` [2-31, 4-[(3S)-3-amino-3-methylpyrrolidin-1-yl]-N-(cyclobutylmethyl)-5-(4-methyl-1H-1,3-benzodiazol-2-yl)pyridine-3-carboxamide], the EC50 (Table A) was less than 10 nM. Turning to `N[C@H]1CCN(c2c(C(=O)NC3CCC(F)(F)CC3)cnc(OCC(=O)O)c2-c2cc(F)cc(F)c2)C1` [1-203, 2-({4-[(3S)-3-aminopyrrolidin-1-yl]-5-[(4,4-difluorocyclohexyl)carbamoyl]-3-(3,5-difluorophenyl)pyridin-2-yl}oxy)acetic acid], the EC50 (Table A) was less than 10 nM. The same measure, in the same setting: the result for `C[C@]1(N)CCN(c2c(C(=O)N[C@@H]3CCCC[C@H]3F)cncc2-c2cc(F)cc(F)c2)C1` (mixture of isomers) [1-52, 4-[(3S)-3-amino-3-methylpyrrolidin-1-yl]-5-(3,5-difluorophenyl)-N-[trans-2-fluorocyclohexyl]pyridine-3-carboxamide] reads less than 10 nM. With `Cc1cccc2[nH]c(-c3cncc(C(=O)NCC4CC4)c3N3CC[C@](C)(N)C3)nc12` [2-13, 4-[(3S)-3-amino-3-methylpyrrolidin-1-yl]-N-(cyclopropylmethyl)-5-(4-methyl-1H-1,3-benzodiazol-2-yl)pyridine-3-carboxamide], the EC50 (Table A) was less than 10 nM. With `C[C@]1(N)CCN(c2c(C(=O)N[C@@H]3CCCC[C@@H]3F)cncc2-c2cc(F)cc(F)c2)C1` (mixture of isomers) [1-83, 4-[(3S)-3-amino-3-methylpyrrolidin-1-yl]-5-(3,5-difluorophenyl)-N-[cis-2-fluorocyclohexyl]pyridine-3-carboxamide], the EC50 (Table A) is less than 10 nM.

For `COc1ncc(C(=O)N[C@@H](C)c2ccccn2)c(N2CC[C@](C)(N)C2)c1-c1cc(F)cc(OC(F)F)c1` [1-241, 4-[(3S)-3-amino-3-methylpyrrolidin-1-yl]-5-[3-(difluoromethoxy)-5-fluorophenyl]-6-methoxy-N-[(1S)-1-(pyridin-2-yl)ethyl]pyridine-3-carboxamide], the EC50 lay within 10 to 100 nM (Table A) and 10 to 100 nM (Table B). Consider `C[C@]1(N)CCN(c2c(C(=O)NC34CCC(CC3)C4)ccnc2-c2cc(F)cc(F)c2)C1` [3-5, 3-[(3S)-3-amino-3-methylpyrrolidin-1-yl]-N-{bicyclo[2.2.1]heptan-1-yl}-2-(3,5-difluorophenyl)pyridine-4-carboxamide], for which the EC50 (Table A) lay in the range of 10 to 100 nM.

Values taken from patent publication US12600709B2, “Nonpeptide somatostatin type 5 receptor agonists and uses thereof” (Crinetics Pharmaceuticals, Inc., priority 2019, dated 2026).
